Experimental data published in US20040073961A1, “Nematode screening assay” (priority 2002, published 2004).
Like-named read-outs stand apart in the source and are kept apart here.

Assays:
rat I7 OR [1] = target: T1, rat I7 OR (Rattus norvegicus, UniProt P23270); settings: from the literature (Zhao 1998; Araneda 2000); cited from earlier work
T1 sequence (P23270 1-327): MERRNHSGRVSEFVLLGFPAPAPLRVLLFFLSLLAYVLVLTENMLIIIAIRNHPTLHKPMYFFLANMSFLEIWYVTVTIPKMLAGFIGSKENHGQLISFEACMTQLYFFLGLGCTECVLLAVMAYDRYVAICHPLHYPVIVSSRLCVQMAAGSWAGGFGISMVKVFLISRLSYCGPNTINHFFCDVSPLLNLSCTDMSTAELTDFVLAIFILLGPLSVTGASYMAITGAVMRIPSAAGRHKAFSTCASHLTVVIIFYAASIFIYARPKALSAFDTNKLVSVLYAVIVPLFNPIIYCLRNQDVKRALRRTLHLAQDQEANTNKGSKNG

rat I7 OR [2] = target: T1, rat I7 OR; assay: Population chemotaxis assay for volatile substances, Str-1::I7 transgenic worms (I7 expressed in AWB neurons); assay type: in vivo, C. elegans; parameters: expressed in transfected cells; host or cells: transgenic C. elegans; AWB neurons (str-1 promoter) or AWA neurons (odr-10 promoter)
Procedure: (§1) (Bargmann, C. I., Hartwieg, E., and Horvitz, H. R. (1993) Cell 74, 515-527). One microliter of odorant and one microliter 1 M sodium azide were added at one end of the dish (zone 1), and one microliter of solvent (ethanol) and one microliter 1 M sodium azide were added at the opposite end (zone 6) as a control. Sodium azide was included to anaesthetize animals entering zones 1 and 6.
(§2) Where reported, worms were exposed to a 1:100 dilution of diacetyl, undiluted benzaldehyde, undiluted octanal and 1:5, 1:10, 1:15, 1:25, 1:50, 1:100, and 1:1000 dilutions of octanal (Sigma Chemical Co., St. Louis, Mo.). Population assay data for N2 and transgenic worm lines were compared using the two-tailed t test.
To investigate the possibility to functionally express mammalian ORs in C. elegans, wild-type nematodes were first characterized for their ability to detect and respond to increasing dilutions of volatile chemicals and particularly to octanal, an agonist for the rat I7 OR (FIG. 4B; Zhao, H., Ivic, L., Otaki J. M., Hashimoto, M., Mikoshiba, K., and Firestein, S. (1998) Science 279, […]; Araneda, R. C., Kini, A. D., and Firestein, S. (2000) Nature Neurosci. 12, 1248-1255). […] Higher dilutions of octanal gave chemotaxis indexes close to 0 indicating a neutral response of the wild-type worms to lower concentrations of the odorant. […] As AWB neurons mediate volatile avoidance in C. elegans, it was expected that the expression of the rat I7 OR in AWB neurons and its activation with a 1:10 dilution of octanal would counteract the olfactory attraction to 1:10 octanal observed in wild-type worms. I7 transgenic worms were generated, in which I7 expression was driven by the str-1 promoter, a controlling element exclusively functional in the two AWB neurons (Troemel, E. R., Kimmel, B. E., and Bargmann, C. I. (1997) Cell 91, 161-169). Five independently derived C. elegans transgenic strains expressing I7 were tested (FIG. 5). […]

wild-type C. elegans [3] = settings: known from the literature, cited from earlier work
rat I7 OR [4] = target: T1, rat I7 OR; assay: Population chemotaxis assay for volatile substances, Odr-10::I7 transgenic worms (I7 expressed in AWA neurons); assay type: in vivo, C. elegans; parameters: expressed in transfected cells; host or cells: transgenic C. elegans; AWB neurons (str-1 promoter) or AWA neurons (odr-10 promoter)
Procedure: as §1, §2
AWA neurons mediate chemotaxis to volatile attractants in C. elegans. […] It was expected that the activation of I7 with undiluted octanal in these transgenic worms would counteract the volatile avoidance to undiluted octanal observed in wild-type worms. Chemotaxis assays were performed with four independently derived C. elegans transgenic strains expressing I7 (FIG. 6). […] While most of the wildtype C. elegans were repelled toward zone 6, a significant number of odr-10::I7 transgenic worms was found in the proximity to the odorant source (FIGS. 6B and 3A). In order to investigate the specificity of the decrease in the aversive response of Odr10::I7 transgenic worms to undiluted octanal and to confirm that this decrease was due to the interaction of octanal with I7, chemotaxis assays with Odr-10::I7 transgenic worms were performed in which diacetyl and benzaldehyde were used.

wild-type C. elegans [5] = assay: Population chemotaxis assay for volatile substances, wild-type worms; assay type: in vivo
Procedure: FIG. 3A: Chemotaxis assays on adult C. elegans to volatile compounds. […] One microliter of odorant and one microliter 1 M sodium azide were added at zone 1, and one microliter of control solvent and one microliter 1 M sodium azide were added at zone 6.
as §1, §2

[6] = specificity controls: 1:100 dilution of diacetyl, pure benzaldehyde, Str-1::I7 transgenic worms
[7] = specificity controls: diacetyl and benzaldehyde, Odr-10::I7 transgenic worms

Row | change of chemotaxis index in relation to control wild-type worms (rat I7 OR [2]; 1:10 octanal, five Str-1::I7 transgenic worm strains, statistically significant) | change of chemotaxis index in relation to control wild-type worms (rat I7 OR [4]; undiluted octanal, four Odr-10::I7 transgenic worm strains, statistically significant) | SMILES | activity at the I7 receptor (rat I7 OR [1]) | change of chemotaxis index in relation to control wild-type worms (rat I7 OR [2]; [6]) | behavioral response of wild-type C. elegans (wild-type C. elegans [3]; pure benzaldehyde) | change of chemotaxis index in relation to control wild-type worms (rat I7 OR [4]; [7]) | chemotaxis index (wild-type C. elegans [5]; 1:10 dilution of octanal, wild-type worms, scored after 1 hour) | chemotaxis index (wild-type C. elegans [5]; higher dilutions of octanal than 1:10, wild-type worms, neutral response) | chemotaxis index (wild-type C. elegans [5]; undiluted octanal, 1 microliter, wild-type worms, scored after 1 hour, +1.0 total attraction, −1.0 total repulsion) | behavioral response of wild-type C. elegans (wild-type C. elegans [3]; 1:100 dilution of diacetyl)
1 |  |  | O=Cc1ccccc1 [benzaldehyde] | do not activate | did not change | induce aversion | did not change |  |  |  | 
2 | decreased dramatically | increased dramatically | CCCCCCCC=O [octanal] | agonist |  |  |  | +0.5 | ~0 | −0.6 | 
3 |  |  | CC(=O)C(C)=O [diacetyl] |  | did not change |  | did not change |  |  |  | induce attraction
